Experimental data reported in ChEMBL document CHEMBL4368907 (J Med Chem, 2019).
Calls of active or inactive are those of the source. The rule behind the calls is not given here. Numbered stars: 1 amine (or outer) side, 2 acyl side, 3 side chain; on linkers, the order of the positions; unused ones are H or OH. Square brackets hold non-standard residues; d marks the D form. Side chains are listed from the residue outwards. Peptide text beside a SMILES is read from it. * marks the point of attachment. Phe(4-CH2SO3H) = N[C@@H](Cc1ccc(CS(=O)(=O)O)cc1)C(=O)O; C18 diacid = O=C(O)CCCCCCCCCCCCCCCCC(=O)*; γGlu = O=C(O)[C@H](CCC(=O)[*:2])N[*:1]; NMeF = CN[C@@H](Cc1ccccc1)C(=O)O; NMeD = CN[C@@H](CC(=O)O)C(=O)O; dNMeD = CN[C@H](CC(=O)O)C(=O)O; Nle = CCCC[C@H](N)C(=O)O; X1 = O=C(Cc1ccc(O)cc1)*; AEEA = NCCOCCOCC(=O)O

Legend:
Sus scrofa [1] = test: Anti-obesity activity in lean Landrace Yorkshire Duroc pig assessed as food intake at 30 nmol/kg, sc measured at 48 to 72 hrs post dose (reference value: 1.8 to 2.1 kg); format: functional
Sus scrofa [2] = test: Anti-obesity activity in lean Landrace Yorkshire Duroc pig assessed as food intake at 30 nmol/kg, sc measured at 72 to 96 hrs post dose (reference value: 1.8 to 2.1 kg); format: functional
Sus scrofa [3] = test: Anti-obesity activity in lean Landrace Yorkshire Duroc pig assessed as food intake at 30 nmol/kg, sc measured at 24 to 48 hrs post dose (reference value: 1.8 to 2.1 kg); format: functional
Sus scrofa [4] = test: Anti-obesity activity in lean Landrace Yorkshire Duroc pig assessed as food intake at 30 nmol/kg, sc measured up to 24 hrs post dose (reference value: 1.8 to 2.1 kg); format: functional
[5] = molecular target: T1, Gastrin/cholecystokinin type B receptor (Homo sapiens, UniProt P32239); test: (§1) Displacement of [125I]-CCK-8 from human CCK2R expressed in human 1321N1 cell membranes after 2 hrs by SPA assay
T1 sequence (P32239 whole entry): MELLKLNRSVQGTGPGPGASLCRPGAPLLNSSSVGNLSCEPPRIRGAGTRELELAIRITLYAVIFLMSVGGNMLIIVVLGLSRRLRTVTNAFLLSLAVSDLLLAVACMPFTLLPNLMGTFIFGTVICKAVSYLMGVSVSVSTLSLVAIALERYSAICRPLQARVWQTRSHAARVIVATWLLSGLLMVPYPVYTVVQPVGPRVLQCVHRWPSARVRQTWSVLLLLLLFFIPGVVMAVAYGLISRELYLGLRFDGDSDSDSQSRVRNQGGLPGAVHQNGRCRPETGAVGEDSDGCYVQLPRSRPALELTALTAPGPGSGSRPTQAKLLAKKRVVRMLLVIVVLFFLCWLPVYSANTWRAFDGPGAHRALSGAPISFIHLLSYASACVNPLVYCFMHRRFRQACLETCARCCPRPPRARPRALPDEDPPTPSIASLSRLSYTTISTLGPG

[6] = molecular target: T2, Cholecystokinin receptor type A (Homo sapiens, UniProt P32238); test: (§2) Displacement of [125I]-CCK-8 from human CCK1R expressed in human 1321N1 cell membranes after 2 hrs by SPA assay
T2 sequence (P32238 whole entry): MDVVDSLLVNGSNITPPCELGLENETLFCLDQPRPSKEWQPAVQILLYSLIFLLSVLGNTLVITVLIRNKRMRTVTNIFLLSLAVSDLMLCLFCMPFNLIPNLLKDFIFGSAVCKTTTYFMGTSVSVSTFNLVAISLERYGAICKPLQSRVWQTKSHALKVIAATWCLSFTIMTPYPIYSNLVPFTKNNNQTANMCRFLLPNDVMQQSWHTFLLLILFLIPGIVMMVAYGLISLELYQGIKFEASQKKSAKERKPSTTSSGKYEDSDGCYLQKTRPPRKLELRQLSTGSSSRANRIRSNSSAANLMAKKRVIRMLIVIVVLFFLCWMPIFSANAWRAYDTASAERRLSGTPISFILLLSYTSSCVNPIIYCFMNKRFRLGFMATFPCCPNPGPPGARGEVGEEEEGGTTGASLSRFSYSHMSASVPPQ

[7] = Toxicity in lean Landrace Yorkshire Duroc pig at 30 nmol/kg, sc measured up to 96 hrs post dose; format: organism-based, Sus scrofa; details: in vivo
[8] = molecular target: T2, Cholecystokinin receptor type A; test: (§3) Agonist activity at human CCK1R expressed in human 1321N1 cells assessed as IP1 accumulation after 1 hr by HTRF assay; format: functional, cell-based
[9] = Plasma concentration in lean Landrace Yorkshire Duroc pig at 30 nmol/kg, sc measured after 96 hrs post dose; format: ADME, organism-based, Sus scrofa
[10] = Drug level in Ellegaard Gottingen minipig plasma treated with C18d-gammaGlu-(OEG)2-Asp-Phe(4sm)-Nle-Gly-Trp-Nle-DMeAspMePhe-NH2 at 5 nmol/kg, iv administered as single dose by LC-MS/MS analysis; format: ADME, organism-based, Sus scrofa; details: pig, in vivo
[11] = molecular target: T3, Gastrin/cholecystokinin type B receptor (Homo sapiens) (UniProt P32239); test: as §1
T3 sequence (whole entry): T1 sequence (P32239 whole entry)

[12] = molecular target: T4, Cholecystokinin receptor type A (Homo sapiens) (UniProt P32238); test: as §2
T4 sequence (whole entry): T2 sequence (P32238 whole entry)

[13] = molecular target: T4, Cholecystokinin receptor type A (Homo sapiens); test: as §3; format: functional, cell-based
[14] = molecular target: T3, Gastrin/cholecystokinin type B receptor (Homo sapiens); test: (§4) Agonist activity at human CCK2R expressed in human 1321N1 cells assessed as IP1 accumulation after 1 hr by HTRF assay; format: functional, cell-based
[15] = Terminal half life in Ellegaard Gottingen minipig at 5 nmol/kg, iv by LC-MS/MS analysis; format: ADME, organism-based, Sus scrofa; details: pig, in vivo, read-out: beta t1/2 (converted)
[16] = molecular target: T1, Gastrin/cholecystokinin type B receptor; test: as §4; format: functional, cell-based

| concentration at 96 h [9] [nM] | pIC50 [11] | pIC50 [12] | pEC50 [13] | pEC50 [14] | SMILES | Activity (Sus scrofa [1]) [kg] | Activity (Sus scrofa [2]) [kg] | Activity (Sus scrofa [3]) [kg] | Activity (Sus scrofa [4]) [kg] | Activity [7] | further results |
| --- | --- | --- | --- | --- | --- | --- | --- | --- | --- | --- | --- |
| – | Active | Active | Active | Active | CCCC[C@H](NC(=O)[C@H](Cc1ccc(OS(=O)(=O)O)cc1)NC(=O)[C@H](CC(=O)O)NC(=O)COCCOCCNC(=O)COCCOCCNC(=O)CC[C@H](NC(=O)CCCCCCCCCCCCCCCCC(=O)O)C(=O)O)C(=O)NCC(=O)N[C@@H](Cc1c[nH]c2ccccc12)C(=O)N[C@@H](CC(C)C)C(=O)N[C@@H](CC(=O)O)C(=O)N[C@@H](Cc1ccccc1)C(N)=O | – | – | – | – | – | – |
| – | inactive | inactive | inactive | inactive | CCCC[C@H](NC(=O)[C@H](Cc1ccc(CS(=O)(=O)O)cc1)NC(=O)[C@H](CC(=O)O)NC(=O)COCCOCCNC(=O)COCCOCCNC(=O)CC[C@H](NC(=O)CCCCCCCCCCCCCCCCC(=O)O)C(=O)O)C(=O)NCC(=O)N[C@@H](Cc1c[nH]c2ccccc12)C(=O)N[C@@H](CCCC)C(=O)N(C)[C@H](CC(=O)O)C(=O)N(C)[C@@H](Cc1ccccc1)C(=O)O | – | – | – | – | – | – |

Further lines, the compound ahead of its results:

| SMILES | concentration at 96 h [9] [nM] | pIC50 [11] | pIC50 [12] | pEC50 [13] | pEC50 [14] | Activity (Sus scrofa [1]) [kg] | Activity (Sus scrofa [2]) [kg] | Activity (Sus scrofa [3]) [kg] | Activity (Sus scrofa [4]) [kg] | Activity [7] | further results |
| --- | --- | --- | --- | --- | --- | --- | --- | --- | --- | --- | --- |
| CCCC[C@H](NC(=O)[C@H](Cc1c[nH]c2ccccc12)NC(=O)CNC(=O)[C@H](CC(C)C)NC(=O)[C@H](Cc1ccc(O)cc1)NC(=O)[C@H](CC(=O)O)NC(=O)COCCOCCNC(=O)COCCOCCNC(=O)CC[C@H](NC(=O)CCCCCCCCCCCCCCCCC(=O)O)C(=O)O)C(=O)N(C)[C@@H](CC(=O)O)C(=O)N(C)[C@@H](Cc1ccccc1)C(N)=O | – | – | – | – | – | 2.6 | 2.3 | 2.2 | 2.3 | – | – |
| CCCC[C@H](NC(=O)[C@H](Cc1ccc(CS(=O)(=O)O)cc1)NC(=O)[C@H](CC(=O)O)NC(=O)COCCOCCNC(=O)[C@H](CCCCN)NC(=O)COCCOCCNC(=O)COCCOCCNC(=O)CC[C@H](NC(=O)CCCCCCCCCCCCCCCCC(=O)O)C(=O)O)C(=O)NCC(=O)N[C@@H](Cc1c[nH]c2ccccc12)C(=O)N[C@@H](CCCC)C(=O)N(C)[C@H](CC(=O)O)C(=O)N(C)[C@@H](Cc1ccccc1)C(N)=O ({C18 diacid-γGlu-AEEA-AEEA}-K[AEEA]D[Phe(4-CH2SO3H)][Nle]GW[Nle][dNMeD][NMeF]-NH2) | 8.8 | – | – | – | – | 1.6 | 1.8 | 1.2 | 0.9 | Non-Toxic | IC50 [5]: 129 nM; IC50 [6]: 0.0631 nM; EC50 [8]: 0.214 nM |
| CCCC[C@H](NC(=O)[C@H](Cc1ccc(CS(=O)(=O)O)cc1)NC(=O)[C@H](CC(=O)O)NC(=O)COCCOCCNC(=O)COCCOCCNC(=O)CC[C@H](NC(=O)CCCCCCCCCCCCCCCCC(=O)O)C(=O)O)C(=O)NCC(=O)N[C@@H](Cc1c[nH]c2ccccc12)C(=O)N[C@@H](CCCC)C(=O)N(C)[C@@H](CC(=O)O)C(=O)O ({C18 diacid-γGlu-AEEA-AEEA}-D[Phe(4-CH2SO3H)][Nle]GW[Nle][NMeD]-OH) | – | – | – | – | – | – | – | – | – | – | Drug uptake [10]: Active |
| CCCC[C@H](NC(=O)[C@H](Cc1c[nH]c2ccccc12)NC(=O)CNC(=O)[C@H](CCCCNC(=O)COCCOCCNC(=O)COCCOCCNC(=O)CC[C@H](NC(=O)CCCCCCCCCCCCCCCCC(=O)O)C(=O)O)NC(=O)Cc1ccc(O)cc1)C(=O)N(C)[C@@H](CC(=O)O)C(=O)N(C)[C@@H](Cc1ccccc1)C(N)=O (X1-K([AEEA-AEEA-γGlu-C18 diacid])GW[Nle][NMeD][NMeF]-NH2) | < 0.9 | – | – | – | – | – | – | – | – | Non-Toxic | half-life [15]: 7.1 h; pIC50 [5]: 5.43; pIC50 [6]: 9.28; pEC50 [8]: 9.8; pEC50 [16]: < 6 |
